Test results taken from patent US6884805B2, “Polymorph forms of N-(2,3-dimethyl-5,6,7,8-tetrahydrofuro[2,3-B]quinolin-4-YL)-2-(2-oxopyrrolidin-1-YL)acetamide” (Mitsubishi Pharma Corporation, priority 2001, dated 2005).
In brackets after ≈: the same amount, converted by molar mass. Entries after “also recorded” stand apart in the source; their conditions may differ. Read-outs that look alike come from different tables or passages of the source.

Tests used:
Format in all cases: physicochemical
[1] = Solubility in the crystallization solvent (for the supersaturability calculation); conditions: aqueous with cosolvent or surfactant or cyclodextrin, about room temperature, read-out: solubility under the condition of crystallization
Protocol: The supersaturability of the form A crystals was calculated as follows: The supersaturability (calculation) is equal to the concentration of the dissolving N-(2,3-dimethyl-5,6,7,8-tetrahydrofuro[2,3-b]quinolin-4-yl)-2-(2-oxopyrrolidin-1-yl)acetamide divided by the solubility of N-(2,3-dimethyl-5,6,7,8-tetrahydrofuro[2,3-b]quinolin-4-yl)-2-(2-oxopyrrolidin-1-yl)acetamide under the condition of crystallization.
The solubility of N-(2,3-dimethyl-5,6,7,8-tetrahydrofuro[2,3-b]quinolin-4-yl)-2-(2-oxopyrrolidin-1-yl)acetamide under the condition of crystallization refers to the solubility of N-(2,3-dimethyl-5,6,7,8-tetrahydrofuro[2,3-b]quinolin-4-yl)-2-(2-oxopyrrolidin-1-yl)acetamide in the solvents used in crystallization at about room temperature.

[2] = Crystal form stability at room temperature and during storage; conditions: for stability in storage: during storage (over time); for stability at room temperature compared with the other crystal form: room temperature (25° C.)
Source text: The form A crystal and the form B crystal of the present invention can be prepared with good reproducibility by using solvents safe for human bodies (e.g., pharmaceutically, pharmacologically, and/or physiologically acceptable). Therefore, it is far more useful as a pharmaceutical bulk or an active ingredient of a medicament.

[3] = Water solubility of saturated solutions measured by LC
Protocol: Saturated solutions of the form A crystals and the form B crystals were prepared at room temperature (25° C.). The concentrations of N-(2,3-dimethyl-5,6,7,8-tetrahydrofuro[2,3-b]quinolin-4-yl)-2-(2-oxopyrrolidin-1-yl)acetamide in each of the saturated solutions then was measured to obtain the water solubility of the form A and form B crystals.
About 20 mg of the form A crystal was weighed and put into separate tube with screwcap, then 10 mL of water were added, and the tube was capped. The tube was ultrasonicated for 5 minutes to suspend the sample. The tube then was shaken for 3 hours in an incubator, with the shaker setting at an appropriate temperature to obtain a saturated solution. The saturated solutions were filtrated using a Chromatodisk 25A (GL Science). 5 mL of the filtrate were measured, and 5 mL of the internal standard solutions (16 mg of isopropyl p-hydroxybenzoate were weighed, and 50% methanol was added to obtain 100 mL of an internal standard solutions) were added, and then 50% methanol was added to obtain 50 mL of sample solutions. 20 mg of each crystals were weighed, and then methanol was added to obtain 50 mL solutions. 5 mL of the aforementioned solutions were measured, and then 5 mL of the internal standard solutions were added, and then 50% of methanol was added to obtain 50 mL of the standard solutions. […]

[4] = Conversion of form B crystal to form A crystal in stirred water suspension; conditions: 0.5 g in 10 mL water, stirred 24 hours, confirmed by powder X-ray diffraction
Protocol: A suspension was prepared by adding 0.5 g of form B crystals of N-(2,3-dimethyl-5 ,6,7,8-tetrahydrofuro [2,3-b]quinolin-4-yl)-2-(2-oxopyrrolidin-1-yl)acetamide to 10 mL of water. […] The powder X-ray diffraction pattern of the resulting crystals was measured to confirm that the resulting crystals were form A crystals.

Cc1oc2nc3c(c(NC(=O)CN4CCCC4=O)c2c1C)CCCC3 [N-(2,3-dimethyl-5,6,7,8-tetrahydrofuro[2,3-b]quinolin-4-yl)-2-(2-oxopyrrolidin-1-yl)acetamide]
solubility ([1]; 10% methanol): 0.41 mg/mL (≈ 1.2 mM)
solubility ([1]; 60% methanol): 28.1 mg/mL (≈ 82.2 mM)

Cc1oc2nc3c(c(NC(=O)CN4CCCC4=O)c2c1C)CCCC3 [form A crystal, N-(2,3-dimethyl-5,6,7,8-tetrahydrofuro[2,3-b]quinolin-4-yl)-2-(2-oxopyrrolidin-1-yl)acetamide]
stability in storage [2]: good stability; also recorded: greater stability
stability at room temperature compared with the other crystal form [2]: extremely stable; also recorded: better stability
stability at room temperature compared with the other crystal form ([2]; listed as form A): more stable

Cc1oc2nc3c(c(NC(=O)CN4CCCC4=O)c2c1C)CCCC3 [form B crystal, N-(2,3-dimethyl-5,6,7,8-tetrahydrofuro[2,3-b]quinolin-4-yl)-2-(2-oxopyrrolidin-1-yl)acetamide]
solubility (in words) ([3]; summary statement): good solubility
solubility compared with the form A crystal ([3]; water, at 25° C. and over a relatively wide temperature range (FIG. 4)): higher
stability in storage [2]: worse stability
stability at room temperature compared with the other crystal form [2]: worse stability
crystal form after stirring a suspension in water [4]: resulted in the form A crystals
